“Also recorded” adds a separate entry of the source.
How the values were obtained:
advanced solid tumors = conditions: continuous dosing, patients with advanced solid tumors; cited from earlier work
HCT-116 xenografts = test: HCT-116 xenograft efficacy study; format: in vivo; conditions: for TGI compared to vehicle control: HCT-116 xenograft
MDA-MB-231 xenograft [1] = conditions: addition of OKI-179 to nivolumab; cited from earlier work
MCF-7 xenograft = test: MCF-7 xenograft, OKI-179 in combination with tamoxifen; conditions: OKI-179 60 mg/kg PO 5 days on 2 days off, tamoxifen 25 mg/kg SQ 3 times a week
acetylated histone H3 = test: MDA-MB-231 xenograft pharmacodynamics; format: in vivo, nude mice; conditions: OKI-179 40, 60 or 80 mg/kg PO daily x 3 or 10 days
MDA-MB-231 xenograft [2] = test: MDA-MB-231 xenograft efficacy study; format: in vivo, BALB/c nude mice; conditions: OKI-179 40-80 mg/kg PO daily, 120 mg PO every other day
[3] = Plasma and tumor pharmacokinetics of OKI-005 in HCT-116 tumor-bearing mice; format: in vivo, BALB/c nude mice
HCC1395 cell line = test: SRB proliferation assay; format: cell-based, human; conditions: read-out: IC50 proliferation, 72 hours
Hs578T cell line = test: SRB proliferation assay; format: cell-based, human; conditions: read-out: IC50 proliferation, 72 hours
[4] = tested on: sensitive and resistant TNBC cell lines; test: Immunoblotting of protein acetylation and p21; format: cell-based, human; conditions: 24 hours, immunoblot
[5] = tested on: luciferase-labeled MDA-MB-231 cells; test: MDA-MB-231 luciferase-labeled metastasis model; format: in vivo, BALB/c nude mice; conditions: OKI-005 10 mg/kg IP 3 times a week for 30 days
[6] = tested on: acetyl-histone H3 and acetyl H3K9; test: HCT-116 xenograft pharmacodynamics; format: in vivo, BALB/c nude mice
MDA-MB-231 cell line = test: SRB proliferation assay; format: cell-based, human; conditions: read-out: IC50 proliferation; MDA-MB-231, SRB, 72 hours
CAL-120 cells = test: Cell cycle analysis; format: cell-based, human; conditions: CAL-120, 24 hours, 0-200 nM
CAL-120 cell line = test: SRB proliferation assay; format: cell-based, human; conditions: read-out: IC50 proliferation; CAL-120, SRB, 72 hours
HDAC-4 = conditions: read-out: IC50 HDAC-4; cell-free biochemical assay, previously published; cited from earlier work
HDAC-2 = conditions: read-out: IC50 HDAC-2; cell-free biochemical assay, previously published; cited from earlier work
[7] = Plasma persistence of OKI-006 across preclinical models; format: in vivo; conditions: depending on the dose and model (mouse vs. rat vs. dog)
HDAC-8 = conditions: read-out: IC50 HDAC-8; cell-free biochemical assay, previously published; cited from earlier work
HDAC-7 = conditions: read-out: IC50 HDAC-7; cell-free biochemical assay, previously published; cited from earlier work
HDAC-9 = conditions: read-out: IC50 HDAC-9; cell-free biochemical assay, previously published; cited from earlier work
HDAC-1 = conditions: read-out: IC50 HDAC-1; cell-free biochemical assay, previously published; cited from earlier work
HDAC-6 = conditions: read-out: IC50 HDAC-6; cell-free biochemical assay, previously published; cited from earlier work
HDAC-3 = conditions: read-out: IC50 HDAC-3; cell-free biochemical assay, previously published; cited from earlier work
HDAC-5 = conditions: read-out: IC50 HDAC-5; cell-free biochemical assay, previously published; cited from earlier work

CC(C)[C@H](N)C(=O)SCC/C=C/[C@@H]1CC(=O)NCc2nc(cs2)C(=O)NC(C)(C)C(=O)N[C@@H](C(C)C)C(=O)O1 [OKI-179]
dose-limiting toxicity (advanced solid tumors): dose-limiting thrombocytopenia
body weight / tolerability (HCT-116 xenografts; OKI-179 100 mg/kg oral daily, animals): weight loss
tumor growth at day 24 (HCT-116 xenografts; OKI-179 40-80 mg/kg PO daily and 120 mg PO every other day, all doses and schedules): statistically significant decreased tumor growth
tumor growth inhibition and T-cell activation (MDA-MB-231 xenograft [1]): improved tumor growth inhibition and increased T-cell activation
tumor growth inhibition (MCF-7 xenograft): active
acetylated histone H3 in tumor (acetylated histone H3): increase in acetylated histone H3
tumor growth inhibition (MDA-MB-231 xenograft [2]): statistically significant tumor growth inhibition at higher doses

CCCCCCCC(=O)SCC/C=C/[C@@H]1CC(=O)NCc2nc(cs2)C(=O)NC(C)(C)C(=O)N[C@@H](C(C)C)C(=O)O1 [OKI-005]
half-life in plasma ([3]; PO dosing of OKI-005, metabolite OKI-006 measured, HCT-116 tumor-bearing mice): < 2 h
IC50 (HCC1395 cell line): > 0.5 µM
TGI compared to vehicle control (HCT-116 xenografts; OKI-005 30 mg/kg, P = 0.025): 28.1%
body weight / tolerability (HCT-116 xenografts; OKI-005 100 mg/kg PO daily, mice, 100 mg/kg): weight loss related to treatment requiring dose reduction; also recorded: dose-limiting treatment-related toxicity
TGI compared to vehicle control (HCT-116 xenografts; OKI-005 100 mg/kg, P < 0.001): 75.6%
IC50 (Hs578T cell line): > 0.5 µM
acetylated histone-H3 and p21 ([4]; 0-500 nM): concentration-dependent increase
acetylated α-tubulin ([4]; highest dose levels): small increase
primary tumor growth and metastasis (number of thoracic metastasis) [5]: statistically significant inhibition
acetyl-histone H3 and acetyl H3K9 in tumor ([6]; 1 hour post-dose, HCT-116 xenograft): dose-dependent increase
time of highest acetyl-Histone H3 and acetyl H3K9 levels post-treatment ([6]; OKI-005 100 mg/kg): 4 h
time of return of acetyl-Histone H3 and acetyl H3K9 to baseline post-dose ([6]; OKI-005 100 mg/kg): 24 h
IC50 (MDA-MB-231 cell line): < 0.1 µM
cell cycle effect (G1 and S phase fraction) (CAL-120 cells): trend towards an increase in G1 and a decrease in the cell fraction in S phase
IC50 (CAL-120 cell line): < 0.1 µM

CC/C(=C(\c1ccccc1)c1ccc(OCCN(C)C)cc1)c1ccccc1 [tamoxifen, reference compound]
tumor growth inhibition (MCF-7 xenograft): active

CC(C)[C@@H]1NC(=O)C(C)(C)NC(=O)c2csc(n2)CNC(=O)C[C@@H](/C=C/CCS)OC1=O [OKI-006]
IC50 (HDAC-4): > 1 µM
tumor concentrations versus plasma levels ([3]; OKI-006 after single dose of OKI-005 PO or IP): exceeded plasma levels at all time points
IC50 (HDAC-2): 0.0024 µM
persistence of plasma concentrations > 100 nM following a single dose [7]: 4 to 12 h
IC50 (HDAC-8): 0.047 µM
IC50 (HDAC-7): > 1 µM
IC50 (HDAC-9): > 1 µM
IC50 (HDAC-1): 0.0012 µM
IC50 (HDAC-6): 0.047 µM
IC50 (HDAC-3): 0.002 µM
IC50 (HDAC-5): > 1 µM

Reference: publication PMC9600708 (Molecular cancer therapeutics, 2022)
